Values joined by “and” are separate entries in the source; they are usually repeats but may differ in a detail not shown here. Equal entries are not always repeated.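 Results reflect a 48-hour exposure of cells in 96-well plates to compound at five concentrations. GI50 is the concentration that inhibits growth by half. Definition used: TGI = concentration required for complete inhibition of growth.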

One assay relates to KM12 colon. In words: DTP human tumour cell line panel, 48 h.
Regarding `O=C1CCCN(c2ccccc2)N1`, the TGI is greater than 100 µM.
Regarding `CN(C)/C(=N/C(=S)Nc1ccccc1)SCc1ccccc1`, the TGI is greater than 100 µM.
The same measure, in the same setting: the value for `CCOC(=O)C1=C(C)Nc2ccccc2S1` was greater than 100 µM; that for `CCOC(=O)CC1=Nc2ccccc2SC1` was greater than 100 µM; that for `C=CCSC[C@H](NC(=O)COc1ccccc1)C(=O)NC(C(=O)OCc1ccc([N+](=O)[O-])cc1)=C(C)C` was greater than 100 µM.

For the next assay, the system named is MCF7 breast. In words: DTP human tumour cell line panel, 48 h.
In the case of `C[C@@H]1CC[C@H]2C(COCC3=C(C(F)(F)F)O[C@@H]4O[C@@]5(C)CC[C@H]6[C@H](C)CC[C@@H]3[C@@]46OO5)=C(C(F)(F)F)O[C@@H]3O[C@@]4(C)CC[C@@H]1[C@]32OO4`, the GI50 is less than 0.01 µM and the TGI is greater than 100 µM.
As to `CC(=O)OCC1OC(O[C@@H]2C[C@H]3C(C)(C)[C@H](OC(C)=O)CC[C@]3(C)[C@H]3CCC4=C([C@@H](C)C[C@@H](O)[C@H](O)C(C)(C)O)CC[C@@]4(C)[C@@]32C)C(O)C(O)C1O` (some centres not stated), the GI50 is 2.89 µM and the concentration for total growth inhibition (TGI) was 11.9 µM.
`COc1ccc2cc1Oc1ccc(cc1)C[C@H]1c3cc(c(OC)cc3CCN1C)Oc1c(OC)c(OC)cc3c1[C@H](C2)N(C)CC3`: the GI50 was 5.27 µM; the TGI was 14 µM and 17.8 µM and > 100 µM.
With `C=C1CCC2C(/C=C(\C)CCC1O)OC(=O)C2C` (configuration not stated), the GI50 is 82.2 µM and the TGI was greater than 100 µM.

The next assay relates to MOLT-4 leukemia. In words: DTP human tumour cell line panel, 48 h.
Take `C[C@@H]1CC[C@H]2C(COCC3=C(C(F)(F)F)O[C@@H]4O[C@@]5(C)CC[C@H]6[C@H](C)CC[C@@H]3[C@@]46OO5)=C(C(F)(F)F)O[C@@H]3O[C@@]4(C)CC[C@@H]1[C@]32OO4`: the GI50 is less than 0.0233 µM and the TGI was greater than 100 µM.
With `CC(=O)OCC1OC(O[C@@H]2C[C@H]3C(C)(C)[C@H](OC(C)=O)CC[C@]3(C)[C@H]3CCC4=C([C@@H](C)C[C@@H](O)[C@H](O)C(C)(C)O)CC[C@@]4(C)[C@@]32C)C(O)C(O)C1O` (some centres not stated), the GI50 was 13.3 µM and the TGI was 35.3 µM.
On to `CCOc1ccc(NC(=O)CC2Sc3ccccc3NC2=O)cc1` (configuration not stated), for which the TGI is greater than 100 µM.
On to `Cn1cc(NC(=O)c2cc(NC(=O)CCCCCCCCCCC(=O)Nc3cc(C(=O)Nc4cc(C(=O)NCCC(=N)N)n(C)c4)n(C)c3)cn2C)cc1C(=O)NCCC(=N)N`, for which the TGI was greater than 100 µM.
`C=C1C(=O)O[C@H]2[C@H]1CC/C(CNC(=O)c1c[nH]c3ccc(F)cc13)=C\CC[C@@]1(C)O[C@@H]21`: the GI50 was 1.32 µM and the TGI amounted to 4.53 µM.
Molecule `COC(=O)C(c1[nH]nc2ccccc12)C(C(=O)OC)c1[nH]nc2ccccc12` (configuration not stated) had a TGI of 82.5 µM.
For `C#CCNC(=O)NC(CCCNC(=O)OCc1ccccc1)C(=O)OCc1ccccc1` (configuration not stated), the TGI was greater than 100 µM.
On the same count and under the same terms, to `O=c1[nH]c2ccccc2cc1C(Cl)=C(Cl)Cl` belongs greater than 100 µM; to `O=[N+]([O-])[C@@H]1C2C=CC(C2)[C@H]1Cl` (some centres not stated), greater than 100 µM; to `COC(=O)C(C#N)=C1c2ccccc2Oc2ccccc21`, greater than 100 µM.
`N#CC1(c2nc3ccccc3o2)C(=O)C(=O)N(C2C3CC4CC(C3)CC2C4)C(=O)C1=O` (configuration not stated) registered a TGI greater than 100 µM.
Still for that read-out and setting: the value for `O=C1NC(c2ccc(O)cc2)C2CCC1C2` (configuration not stated) was greater than 100 µM.
As for `C=CC1=CSNN1`, the TGI was greater than 100 µM.
`O=C(C#Cc1c[nH]c(=O)[nH]c1=O)c1ccccc1Cl` had a TGI of 44.3 µM.
In turn, `CC(=O)OC1=C2CC3(C)OC(=O)CC(C)(C)C3=CC=C2C=C(C(C)C)C1=O` (configuration not stated) displayed a concentration for total growth inhibition (TGI) of 0.756 µM.
In the case of `CCCCCCCCCCCCCCCC(=O)NCC(COP(=O)([O-])OCC[N+](C)(C)C)OCC` (configuration not stated), the TGI was found to be 10.1 µM.
As to `C=C1CCC2C(/C=C(\C)CCC1O)OC(=O)C2C` (configuration not stated), the GI50 is 19.6 µM and the TGI turned out to be 58.2 µM.
Regarding `O=C1NC2(CCCC2)C(=O)C12CCCC2`, the TGI is greater than 100 µM.
On to `O=C1CCCN(c2ccccc2)N1`, for which the concentration for total growth inhibition (TGI) was greater than 100 µM.
The same measure, in the same setting: the value for `CN(C)/C(=N/C(=S)Nc1ccccc1)SCc1ccccc1` was greater than 100 µM; that for `CCOC(=O)C1=C(C)Nc2ccccc2S1` was greater than 100 µM; that for `CCOC(=O)CC1=Nc2ccccc2SC1` was greater than 100 µM.
Take `C=CCSC[C@H](NC(=O)COc1ccccc1)C(=O)NC(C(=O)OCc1ccc([N+](=O)[O-])cc1)=C(C)C`: the TGI turned out to be 88.1 µM.

The test system of another assay is SF-268 CNS. In words: DTP human tumour cell line panel, 48 h.
`CC(=O)OCC1OC(O[C@@H]2C[C@H]3C(C)(C)[C@H](OC(C)=O)CC[C@]3(C)[C@H]3CCC4=C([C@@H](C)C[C@@H](O)[C@H](O)C(C)(C)O)CC[C@@]4(C)[C@@]32C)C(O)C(O)C1O` (some centres not stated) returned a TGI of 27.7 µM.
On to `CCOc1ccc(NC(=O)CC2Sc3ccccc3NC2=O)cc1` (configuration not stated), for which the TGI is greater than 100 µM.
`Cn1cc(NC(=O)c2cc(NC(=O)CCCCCCCCCCC(=O)Nc3cc(C(=O)Nc4cc(C(=O)NCCC(=N)N)n(C)c4)n(C)c3)cn2C)cc1C(=O)NCCC(=N)N` registered a TGI greater than 100 µM.
For the molecule `Cc1ccccc1C(C#N)C(=O)C(=O)Nc1nc([N+](=O)[O-])cs1` (configuration not stated), the TGI was greater than 100 µM.
`C=C1C(=O)O[C@H]2[C@H]1CC/C(CNC(=O)c1c[nH]c3ccc(F)cc13)=C\CC[C@@]1(C)O[C@@H]21`: the GI50 was 1.78 µM and the TGI was 4.45 µM.
For the molecule `COC(=O)C(c1[nH]nc2ccccc12)C(C(=O)OC)c1[nH]nc2ccccc12` (configuration not stated), the TGI is greater than 100 µM.
Same read-out and setting: to `C#CCNC(=O)NC(CCCNC(=O)OCc1ccccc1)C(=O)OCc1ccccc1` (configuration not stated) belongs greater than 100 µM.
For `COc1ccc2cc1Oc1ccc(cc1)C[C@H]1c3cc(c(OC)cc3CCN1C)Oc1c(OC)c(OC)cc3c1[C@H](C2)N(C)CC3`, the GI50 was 12.6 µM; the TGI was 16.5 µM and 25.1 µM and > 100 µM.
The molecule `O=c1[nH]c2ccccc2cc1C(Cl)=C(Cl)Cl` gave a TGI greater than 100 µM.
The molecule `O=[N+]([O-])[C@@H]1C2C=CC(C2)[C@H]1Cl` (some centres not stated) returned a TGI greater than 100 µM.
On the same count and under the same terms, the value for `COC(=O)C(C#N)=C1c2ccccc2Oc2ccccc21` was greater than 100 µM.
As for `N#CC1(c2nc3ccccc3o2)C(=O)C(=O)N(C2C3CC4CC(C3)CC2C4)C(=O)C1=O` (configuration not stated), the TGI was greater than 100 µM.
Regarding `O=C1NC(c2ccc(O)cc2)C2CCC1C2` (configuration not stated), the TGI was greater than 100 µM.
Consider `CCOC(=O)C1(CC)CCCCC(=O)N1` (configuration not stated), for which the TGI is greater than 100 µM.
For `C=CC1=CSNN1`, the TGI is greater than 100 µM.
The molecule `O=C(C#Cc1c[nH]c(=O)[nH]c1=O)c1ccccc1Cl` came in with a TGI of 41.4 µM.
Take `CC(=O)OC1=C2CC3(C)OC(=O)CC(C)(C)C3=CC=C2C=C(C(C)C)C1=O` (configuration not stated): the TGI worked out at 2.4 µM.
Still for that read-out and setting: the value for `CCCCCCCCCCCCCCCC(=O)NCC(COP(=O)([O-])OCC[N+](C)(C)C)OCC` (configuration not stated) was 27 µM.
With `CCC(C)C1NC(=O)c2nc(oc2-c2ccccc2)-c2csc(n2)-c2csc(n2)-c2nc(oc2C)-c2coc(n2)CNC(=O)C(C(C)CC)NC1=O` (configuration not stated), the GI50 is 0.0249 µM and the TGI stood at 0.154 µM.

What is called TGI is the concentration at which net growth stops. As usually defined, the GI50 is the concentration that inhibits growth by half.

Values taken from PubChem BioAssay (NCI).
